Assay results taken from patent publication US6737383B1, “Herbicidal oxadiazolidines” (priority 1999, dated 2004).

Tests used:
[1] = tested on: bedstraw; assay: Test B pre/postemergence bedstraw; type: in vivo, Galium aparine
How it was run: (§1)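 Response is a visual 0-to-10 score relative to untreated plants, where 0 means no effect and 10 means complete control, taken twelve to sixteen days after application. Treatments went onto soil at planting and onto foliage of 1- to 4-leaf plants, using a surfactant-containing non-phytotoxic solvent.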

[2] = tested on: pigweed; assay: Test B pre/postemergence pigweed; type: in vivo, Amaranthus retroflexus; conditions: for Plant response rating, Redroot pigweed: Postemergence
How it was run: as §1

[3] = tested on: wild oat; assay: Test B pre/postemergence wild oat; type: in vivo, Avena fatua; conditions: for Plant response rating, Wild oats: Postemergence
How it was run: as §1

[4] = tested on: soybean; assay: Test B pre/postemergence soybean; type: in vivo, Glycine max; conditions: for Plant response rating, Soybean: Postemergence; for Plant response rating, Soybean / Soybean plant response rating: scale of 0 to 10 where 0 is no effect and 10 is complete control
How it was run: as §1

[5] = tested on: morningglory; assay: Test B pre/postemergence morningglory; type: in vivo, Ipomoea hederacea
How it was run: as §1

[6] = tested on: corn; assay: Test B pre/postemergence corn; type: in vivo, Zea mays
How it was run: as §1

[7] = tested on: velvetleaf; assay: Test B pre/postemergence velvetleaf; type: in vivo, Abutilon theophrasti; conditions: for Plant response rating, Velvetleaf: Postemergence
How it was run: as §1

[8] = tested on: smallflower flatsedge; assay: Test B flood test smallflower flatsedge; type: in vivo, Cyperus difformis
How it was run: (§2)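 Each value is a visual injury score relative to controls, with 10 meaning complete control and 0 no effect. Evaluation took place twelve to sixteen days after the 2-leaf-stage plants were treated and kept in the greenhouse.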

[9] = tested on: wheat; assay: Test B pre/postemergence wheat; type: in vivo, Triticum aestivum; conditions: for Plant response rating, Wheat: Postemergence
How it was run: as §1

[10] = tested on: blackgrass; assay: Test B pre/postemergence blackgrass; type: in vivo, Alopecurus myosuroides
How it was run: as §1

[11] = tested on: giant foxtail; assay: Test B pre/postemergence giant foxtail; type: in vivo, Setaria faberii
How it was run: as §1

[12] = tested on: bamyardgrass; assay: Test B flood test barnyardgrass; type: in vivo, Echinochloa crus-galli
How it was run: as §2

[13] = tested on: crabgrass; assay: Test B pre/postemergence crabgrass; type: in vivo, Digitaria sanguinalis
How it was run: as §1

[14] = tested on: cocklebur; assay: Test B pre/postemergence cocklebur; type: in vivo, Xanthium strumarium
How it was run: as §1

[15] = tested on: surinam grass; assay: Test B pre/postemergence surinam grass; type: in vivo, Brachiaria decumbens
How it was run: as §1

[16] = tested on: rice; assay: Test B flood test rice; type: in vivo, Oryza sativa
How it was run: as §2

[17] = Postemergence, Rate 62 g/ha, scale of 0 to 10, 0 is no effect, 10 is complete control
[18] = Postemergence, Rate 500 g/ha, scale of 0 to 10 where 0 is no effect and 10 is complete control
[19] = Preemergence, Rate 62 g/ha, scale 0 to 10 (0 no effect, 10 complete control)
[20] = Preemergence, Rate 125 g/ha, scale of 0 to 10 where 0 is no effect and 10 is complete control
[21] = Preemergence, Rate 500 g/ha, scale of 0 to 10 where 0 is no effect and 10 is complete control
[22] = Rate 250 g/ha, Postemergence, scale of 0 to 10 where 0 is no effect and 10 is complete control
[23] = Rate 125 g/ha, scale of 0 to 10 where 0 is no effect and 10 is complete control
[24] = Rate 500 g/ha, scale of 0 to 10 where 0 is no effect and 10 is complete control
[25] = Rate 250 g/ha, scale of 0 to 10 where 0 is no effect and 10 is complete control
[26] = Postemergence, Rate 125 g/ha, scale of 0 to 10 where 0 is no effect and 10 is complete control
[27] = Rate 62 g/ha, flood test species, Pre-emergence, visual evaluation after twelve to sixteen days
[28] = Rate 125 g/ha, under heading Pre-emergence, flood test species, visual evaluation after twelve to sixteen days
[29] = Rate 250 g/ha, Pre-emergence (flood test species), scale 0 to 10, 0 is no effect, 10 is complete control
[30] = Rate 500 g/ha, Pre-emergence section of Table B, 0 to 10 scale (0 no effect, 10 complete control)

CC(C)N(C(=O)n1oc(=O)n(CC2CCC2)c1=O)c1ccccc1 [Compound 580]
Bedstraw plant response rating [1, 17]: 3
Plant response rating, Bedstraw [1, 18]: 9
Bedstraw plant response rating [1, 19]: 0
Bedstraw plant response rating [1, 20]: 4
Bedstraw plant response rating (0 to 10 scale) ([1]; Preemergence, Rate 250 g/ha): 6
Bedstraw plant response rating [1, 21]: 6
Plant response rating, Bedstraw [1, 22]: 0
Plant response rating, Redroot pigweed [2, 23]: 5
Plant response rating, Redroot pigweed [2, 24]: 9
Redroot pigweed plant response rating [2, 19]: 9
Redroot pigweed plant response rating [2, 20]: 10
Redroot pigweed plant response rating (0 to 10 scale) ([2]; Preemergence, Rate 250 g/ha): 10
Redroot pigweed plant response rating [2, 21]: 10
Plant response rating, Redroot pigweed [2, 25]: 5
Plant response rating, Wild oats [3, 23]: 0
Plant response rating, Wild oats [3, 24]: 7
Wild oats plant response rating [3, 19]: 0
Wild oats plant response rating [3, 20]: 0
Wild oats plant response rating (0 to 10 scale) ([3]; Preemergence, Rate 250 g/ha): 2
Wild oats plant response rating [3, 21]: 5
Plant response rating, Wild oats [3, 25]: 3
Plant response rating, Soybean ([4]; Rate 125 g/ha): 4
Plant response rating, Soybean ([4]; Rate 500 g/ha): 4
Soybean plant response rating ([4]; Preemergence, Rate 125 g/ha): 0
Soybean plant response rating (0 to 10 scale) ([4]; Preemergence, Rate 250 g/ha): 0
Soybean plant response rating ([4]; Preemergence, Rate 500 g/ha): 0
Plant response rating, Soybean ([4]; Rate 250 g/ha): 4
Morningglory plant response rating [5, 17]: 7
Plant response rating, Morningglory [5, 26]: 7
Plant response rating, Morningglory [5, 18]: 10
Morningglory plant response rating [5, 19]: 0
Morningglory plant response rating [5, 20]: 0
Morningglory plant response rating (0 to 10 scale) ([5]; Preemergence, Rate 250 g/ha): 0
Morningglory plant response rating [5, 21]: 0
Plant response rating, Morningglory [5, 22]: 8
Corn plant response rating [6, 17]: 0
Plant response rating, Corn [6, 26]: 0
Plant response rating, Corn [6, 18]: 0
Corn plant response rating [6, 19]: 0
Corn plant response rating [6, 20]: 0
Corn plant response rating (0 to 10 scale) ([6]; Preemergence, Rate 250 g/ha): 2
Corn plant response rating [6, 21]: 5
Plant response rating, Corn [6, 22]: 0
Plant response rating, Velvetleaf [7, 23]: 2
Plant response rating, Velvetleaf [7, 24]: 3
Velvetleaf plant response rating [7, 19]: 0
Velvetleaf plant response rating [7, 20]: 0
Velvetleaf plant response rating (0 to 10 scale) ([7]; Preemergence, Rate 250 g/ha): 2
Velvetleaf plant response rating [7, 21]: 5
Plant response rating, Velvetleaf [7, 25]: 2
Plant response rating, S. Flatsedge (0 to 10 scale, 0 is no effect, 10 is complete control) [8, 27]: 0
S. Flatsedge plant response rating (0 to 10 scale, 0 is no effect, 10 is complete control) [8, 28]: 0
S. Flatsedge plant response rating [8, 29]: 0
S. Flatsedge plant response rating [8, 30]: 0
Plant response rating, Wheat [9, 23]: 0
Plant response rating, Wheat [9, 24]: 3
Wheat plant response rating [9, 19]: 0
Wheat plant response rating [9, 20]: 0
Wheat plant response rating (0 to 10 scale) ([9]; Preemergence, Rate 250 g/ha): 2
Wheat plant response rating [9, 21]: 5
Plant response rating, Wheat [9, 25]: 0
Blackgrass plant response rating [10, 17]: 2
Plant response rating, Blackgrass [10, 26]: 6
Plant response rating, Blackgrass [10, 18]: 7
Blackgrass plant response rating [10, 19]: 0
Blackgrass plant response rating [10, 20]: 3
Blackgrass plant response rating (0 to 10 scale) ([10]; Preemergence, Rate 250 g/ha): 7
Blackgrass plant response rating [10, 21]: 7
Plant response rating, Blackgrass [10, 22]: 7
Giant foxtail plant response rating [11, 17]: 0
Plant response rating, Giant foxtail [11, 26]: 6
Plant response rating, Giant foxtail [11, 18]: 8
Giant foxtail plant response rating [11, 19]: 9
Giant foxtail plant response rating [11, 20]: 9
Giant foxtail plant response rating (0 to 10 scale) ([11]; Preemergence, Rate 250 g/ha): 10
Giant foxtail plant response rating [11, 21]: 10
Plant response rating, Giant foxtail [11, 22]: 8
Plant response rating, Barnyardgrass (0 to 10 scale, 0 is no effect, 10 is complete control) [12, 27]: 0
Barnyardgrass plant response rating (0 to 10 scale, 0 is no effect, 10 is complete control) [12, 28]: 0
Barnyardgrass plant response rating [12, 29]: 0
Barnyardgrass plant response rating [12, 30]: 0
Crabgrass plant response rating [13, 17]: 0
Plant response rating, Crabgrass [13, 26]: 3
Crabgrass plant response rating [13, 19]: 6
Crabgrass plant response rating [13, 20]: 6
Crabgrass plant response rating (0 to 10 scale) ([13]; Preemergence, Rate 250 g/ha): 9
Crabgrass plant response rating [13, 21]: 9
Plant response rating, Crabgrass [13, 22]: 9
Cocklebur plant response rating [14, 17]: 3
Plant response rating, Cocklebur [14, 26]: 3
Plant response rating, Cocklebur [14, 18]: 6
Cocklebur plant response rating [14, 19]: 0
Cocklebur plant response rating [14, 20]: 0
Cocklebur plant response rating (0 to 10 scale) ([14]; Preemergence, Rate 250 g/ha): 0
Cocklebur plant response rating [14, 21]: 3
Plant response rating, Cocklebur [14, 22]: 3
B. signalgrass plant response rating [15, 17]: 0
Plant response rating, B. signalgrass [15, 26]: 2
Plant response rating, B. signalgrass [15, 18]: 8
B. signalgrass plant response rating [15, 19]: 2
B. signalgrass plant response rating [15, 20]: 6
B. signalgrass plant response rating (0 to 10 scale, 0 is no effect, 10 is complete control) ([15]; Preemergence, Rate 250 g/ha): 6
B. signalgrass plant response rating [15, 21]: 9
Plant response rating, B. signalgrass [15, 22]: 5
Plant response rating, Rice (0 to 10 scale, 0 is no effect, 10 is complete control) [16, 27]: 0
Rice plant response rating (0 to 10 scale, 0 is no effect, 10 is complete control) [16, 28]: 0
Rice plant response rating [16, 29]: 0
Rice plant response rating [16, 30]: 0
